Patent US9686971B2, “Methods for testing anti-thrombotic agents” (The Trustees of Columbia University in the City of New York, priority 2006, dated 2017)
“Also recorded” adds a separate entry of the source. Each block holds one molecule with its values, some of them ahead of it.

Tests used:
[1] = test system: murine platelets; test: Ristocetin-induced platelet aggregation assay (RIPA), murine platelet rich plasma; assay type: cell-based, mouse
Protocol: In a Ristocetin-induced platelet aggregation assays, platelet GPIb alpha binding to wild type human VWF or mouse VWF was analyzed in the absence or presence of ristocetin as described by Inbal, et al. (1993, Thromb. Haemost., 70:1058-1062). In this method, platelet rich plasma (PRP) is placed in a clear cuvette containing a stir bar and inserted into the aggregometer. Platelet aggregation is induced by the addition of ristocetin. […] In fact, only at concentrations of ≧2.5 mg/ml was there any evidence of murine platelet aggregation observed (˜30%, FIG. 10C).

[2] = test system: human platelets; test: Ex vivo platelet adhesion, human whole blood over immobilized plasma VWF or rVWF-A1, 1600 s^-1; assay type: cell-based; settings: for translocation velocities of human platelets: mean±s.e.m, n=4; for human platelet accumulation on immobilized protein / human platelet deposition as compared with same-species controls: human whole blood; for human platelet accumulation on immobilized protein: 1600 s^-1; for human platelet deposition as compared with same-species controls: 1600 s^-1, 4 min
Protocol: (§1) Experiments were performed in a parallel-plate flow chamber as previously described (Offermanns, S. (2006) Circ. Res. 99, 1293-1304). For studies involving plasma VWF, a polyclonal anti-VWF antibody (Dako) was absorbed overnight (4° C.) to a six well tissue culture plate. Subsequently, the plate was washed and non-specific interactions blocked by the addition of TBS containing 3% BSA, pH 7.4 (1 h, 37° C.). Human or murine plasma obtained from heparinized whole blood was added and the plates placed at 37° C. for an additional 2 h. Generation, purification, and surface-immobilization of recombinant VWF-A1 proteins was performed as previously described (Doggett, T. A. et al. Biophys. J. 83, 194-205 (2002)). Both human and murine VWF-A1 constructs consist of amino acid residues 1238 to 1471, with a single intra-disulfide bond formed between residues 1272 and 1458 and were generated in bacteria. Citrated whole blood (150 μl) collected via cardiac puncture from anesthetized homozygous VWF^1326R>H or WT mice or from venopuncture from human volunteers was perfused over the immobilized substrates at a wall shear rate of 1600 s^−1 for 4 min, followed by washing with Tyrode's buffer under the identical flow conditions. The number of platelets attached per unit area (0.07 mm^2) and translocation velocities were determined by off-line analysis (Image-Pro Plus, Media Cybernetics). For GPIbα inhibition studies, the function-blocking mAb 6D1 (20 μg/ml) or mAb SZ2 (20 μg/ml; Beckman Coulter) was added to anticoagulated human blood for 30 min prior to use. Experiments were performed in triplicate on two separate days. An ELISA was used to ensure equivalent coating concentration of plasma and recombinant proteins (Denis, C. et al. (1998) Proc. Natl. Acad. Sci. USA 95, 9524-9529).

[3] = test system: human platelets; settings: cited from earlier work
[4] = test system: thrombus formation; settings: mice; given the day before and 2 hours prior; cited from earlier work
[5] = molecular target: T1, GPIb alpha (Homo sapiens, UniProt P07359); test: Transient tether kinetics of VWF-A1 coated microspheres on surface-immobilized human platelets; assay type: binding; settings: VWF-A1 coated beads, wall shear stress 1 dyn cm^−2
T1 construct: enables evaluation of GPIb alpha in its native form (i.e. correct orientation and proper post-translational modification); endogenous in cells; host or cells: human platelets purified by gel filtration, immobilized on Fab fragments of mAb 7E3
Protocol: In flow assays involving protein-coated microspheres, human or murine platelets purified by gel filtration are incubated with 10 mM sodium azide (NaN3), 50 ng/ml prostaglandin E1, and 10 μm indomethacin (Sigma Immunochemicals, St. Louis, Mo.) to reduce the possibility of activation and potential alterations in expression and/or distribution of GPIb alpha on their surface. Platelets are subsequently allowed to settle in stasis on Fab fragments of monoclonal antibodies that recognize either human (i.e., mAb 7E3) or murine (i.e., mAb NAD-1) alpha IIb/β3 in order to form a reactive substrate. […] Platelet coverage of <10% will be bound in this manner can remain relatively unactivated for up to 30 min as evident by morphology on light microscopic examination (FIG. 7A) and lack of expression of P-selectin by fluorescence microscopy (FIG. 7B).
To reduce the possibility of multiple bond formation that would result in a prolongation in interaction times between the beads and immobilized platelets, the lowest site densities of VWF-A1 capable of supporting these brief interactions is used, a value we found to correspond to ˜30 molecules μm^2. […] The force acting on the tether bond was calculated from force balance equations as stated above and koff plotted as a function of these forces. […]

[6] = in vivo; cited from earlier work
[7] = test system: human platelets; test: In vitro parallel plate flow chamber platelet adhesion on recombinant VWF-A1, 800 s^-1, human platelets; assay type: cell-based; settings: wall shear rate 800 s^-1
Protocol: (§2) The protein was subsequently used in a series of in vitro flow chamber assays to assess function. Washed human or murine platelets (5×10^7/ml) were infused through a parallel plate flow chamber containing glass cover slips coated with either human VWF-A1 or mouse VWF-A1 protein (100 μg/ml final concentration) at a shear rate of 800 s^−1. After 5 min of continuous flow, adherent platelets were quantified.
Support for this hypothesis is provided by mutagenesis studies. By analyzing the data obtained from the crystal structure of the murine VWF-A1 domain, we have identified several residues that may participate in interactions with GPIb alpha (FIG. 15C). Residue 1326 was initially chosen for study and was mutated to the corresponding amino acid at the identical location in its human counterpart (from Arg to His). Subsequently, the ability of murine and human platelets to interact with this mutant protein substrate was evaluated at a wall shear rate of 800 s^−1. Incorporation of a histidine for arginine at position 1326 in murine VWF-A1 reduced murine platelet adhesion by ˜5-fold and increased translocation velocities of cells by ˜7-fold as compared to the WT mouse protein (FIGS. 13A, 13B, 16A, and 16B). […] These studies support the hypothesis that from a structural and functional standpoint, mouse and human VWF-A1 are very similar.

[8] = test system: murine platelets; test: In vitro parallel plate flow chamber platelet adhesion on recombinant VWF-A1, 800 s^-1, murine platelets; assay type: cell-based, mouse; settings: wall shear rate 800 s^-1
Protocol: as §2
In the case of the latter, the murine A1 fragment was inserted into pET-11b (Stratagene) and purified as previously described (53).
Support for this hypothesis is provided by mutagenesis studies. By analyzing the data obtained from the crystal structure of the murine VWF-A1 domain, we have identified several residues that may participate in interactions with GPIb alpha (FIG. 15C). Residue 1326 was initially chosen for study and was mutated to the corresponding amino acid at the identical location in its human counterpart (from Arg to His). Subsequently, the ability of murine and human platelets to interact with this mutant protein substrate was evaluated at a wall shear rate of 800 s^−1. Incorporation of a histidine for arginine at position 1326 in murine VWF-A1 reduced murine platelet adhesion by ˜5-fold and increased translocation velocities of cells by ˜7-fold as compared to the WT mouse protein (FIGS. 13A, 13B, 16A, and 16B). […]

[9] = test system: murine platelets; test: Ex vivo platelet adhesion, murine whole blood over immobilized plasma VWF or rVWF-A1, 1600 s^-1; assay type: cell-based, mouse
Protocol: as §1, with “For GPIbα inhibition studies, the function-blocking mAb 6D1 (20 μg/ml) or mAb SZ2 (20 μg/ml; Beckman Coulter) was added to anticoagulated human blood for 30 min prior to use. Experiments were performed in triplicate on two separate days. An ELISA was used to ensure equivalent coating concentration of plasma and recombinant proteins (Denis, C. et al. (1998) Proc. Natl. Acad. Sci. USA 95, 9524-9529).” left out

T1 sequence (P07359 17-652): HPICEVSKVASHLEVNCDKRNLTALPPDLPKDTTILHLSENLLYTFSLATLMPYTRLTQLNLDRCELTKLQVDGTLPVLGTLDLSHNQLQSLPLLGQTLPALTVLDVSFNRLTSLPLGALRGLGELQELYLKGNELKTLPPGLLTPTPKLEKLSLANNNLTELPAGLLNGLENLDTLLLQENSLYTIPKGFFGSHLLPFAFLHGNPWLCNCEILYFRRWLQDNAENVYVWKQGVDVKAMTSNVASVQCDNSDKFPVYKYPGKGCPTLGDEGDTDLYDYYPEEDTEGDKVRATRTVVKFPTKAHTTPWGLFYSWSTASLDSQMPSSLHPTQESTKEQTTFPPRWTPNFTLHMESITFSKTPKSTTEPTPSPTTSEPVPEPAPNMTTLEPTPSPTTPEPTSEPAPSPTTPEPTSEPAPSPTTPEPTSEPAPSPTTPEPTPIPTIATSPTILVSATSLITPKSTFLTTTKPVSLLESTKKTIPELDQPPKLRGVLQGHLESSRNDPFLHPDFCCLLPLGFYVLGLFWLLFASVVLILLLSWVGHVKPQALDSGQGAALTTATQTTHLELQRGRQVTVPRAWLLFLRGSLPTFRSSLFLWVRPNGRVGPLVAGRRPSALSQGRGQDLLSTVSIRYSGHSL

Molecule: thrombin
platelet aggregation ([1]; incubation of murine PRP with thrombin): > 90%

Molecule: human plasma VWF: native human plasma VWF
translocation velocities of human platelets [2]: 3.2±0.1 μm/sec

Molecule: murine plasma VWF^1326R>H: plasma VWF obtained from mice homozygous for VWF^1326R>H
human platelet accumulation on immobilized protein [2]: comparable with its human counterpart | translocation velocities of human platelets [2]: 3.5±0.1 μm/sec

Molecule: ristocetin
effect on murine platelets at the concentration that agglutinates human platelets ([1]; murine PRP, ristocetin ~1.0 mg/ml): no such effect; also recorded: had no effect | platelet aggregation ([1]; murine PRP, ristocetin ≧2.5 mg/ml): ~30% | concentration known to cause agglutination of human platelets [3]: ~1.0 mg/mL

Molecule: COC(=O)[C@H](c1ccccc1Cl)N1CCc2sccc2C1 [clopidogrel]
maximal effective dose to reduce thrombus size and delay its formation [4]: 50 mg/kg

koff [5]: 6.5 s⁻¹
Molecule: WT human VWF-A1: wild type recombinant human VWF-A1 domain

Molecule: CCCCS(=O)(=O)N[C@@H](Cc1ccc(OCCCCC2CCNCC2)cc1)C(=O)O [Tirofiban]
plasma half-life [6]: approximately 2 hours

Molecule: murine plasma VWF: surface-bound wild type murine plasma VWF
human platelet deposition as compared with same-species controls [2]: 10%

B1: murine rVWF-A1: recombinant A1 domain of murine VWF, residues 1238 to 1471 (protein)
chain: QEPGGLVAPPTDAPVSSTTPYVEDTPEPPLHNFYCSKLLDLVFLLDGSSMLSEAEFEVLKAFVVGMMERLHISQKRIRVAVVEYHDGSRAYLELKARKRPSELRRITSQIKYTGSQVASTSEVLKYTLFQIFGKIDRPEASHITLLLTASQEPPRMARNLVRYVQGLKKKKVIVIPVGIGPHASLKQIRLIEKQAPENKAFLLSGVDELEQRRDEIVSYLCDLAPEAPAPTQPP
modifications: left off: small tags and cut ends
human platelet deposition as compared with same-species controls [2]: 25%

B2: murine rVWF-A1 1370S>G: murine rVWF-A1 with human residue at position 1370, printed S>G (protein)
chain: QEPGGLVAPPTDAPVSSTTPYVEDTPEPPLHNFYCSKLLDLVFLLDGSSMLSEAEFEVLKAFVVGMMERLHISQKRIRVAVVEYHDGSRAYLELKARKRPSELRRITSQIKYTGSQVASTSEVLKYTLFQIFSKIDRPEASHITLLLTASQEPPRMARNLVRYVQGLKKKKVIVIPVGIGPHASLKQIRLIEKQAPENKAFLLSGVDELEQRRDEIVSYLCDLAPEAPAPTQPP
modifications: left off: small tags and cut ends
notes: murine rVWF-A1 with human residue at position 1370, printed S>G
human platelet accumulation on immobilized protein [2]: failed to promote the interaction

B3: murine rVWF-A1 1330E>G: murine rVWF-A1 with human residue at position 1330 (E>G) (protein)
chain: QEPGGLVAPPTDAPVSSTTPYVEDTPEPPLHNFYCSKLLDLVFLLDGSSMLSEAEFEVLKAFVVGMMERLHISQKRIRVAVVEYHDGSRAYLGLKARKRPSELRRITSQIKYTGSQVASTSEVLKYTLFQIFGKIDRPEASHITLLLTASQEPPRMARNLVRYVQGLKKKKVIVIPVGIGPHASLKQIRLIEKQAPENKAFLLSGVDELEQRRDEIVSYLCDLAPEAPAPTQPP
modifications: left off: small tags and cut ends
human platelet accumulation on immobilized protein [2]: failed to promote the interaction

B4: murine VWF-A1 1326R>H: recombinant mouse VWF-A1 domain with HIS for ARG at residue 1326 (protein)
chain: EDTPEPPLHNFYCSKLLDLVFLLDGSSMLSEAEFEVLKAFVVGMMERLHISQKRIRVAVVEYHDGSHAYLELKARKRPSELRRITSQIKYTGSQVASTSEVLKYTLFQIFGKIDRPEASHITLLLTASQEPPRMARNLVRYVQGLKKKKVIVIPVGIGPHASLKQIRLIEKQAPENKAFLLSGVDELEQRRDEIVSYLCDLAPEAPAPTQPPQVAHVTVSP
human platelet interactions with the protein substrate [7]: comparable to that of WT human VWF-A1 | increase of translocation velocities of murine platelets compared to WT mouse protein [8]: ~7 fold | reduction of murine platelet adhesion compared to WT mouse protein [8]: ~5 fold | reduction of mouse platelet adhesion [9]: ~75% | human platelet accumulation on immobilized protein [2]: comparable to its wild-type (WT) human counterpart
